From patent publication EP1242012B1, “IMPROVED TRANSDERMAL CONTRACEPTIVE DELIVERY SYSTEM AND PROCESS” (priority 1999, dated 2001)

Assays:
[1] = human, in vivo, topical or ocular
Source text: The total duration of study for each subject participating in this study is 5 months. It consists of one base-line period followed by three treatment periods and one recovery period. Each period is one menstrual cycle of the person subjects.
Subjects attending this 5 month-long study were randomly divided and sequentially admitted into three study groups. Group A, B and C subjects received one piece of 7.5 cm^2, 10.0 cm^2 and 12.5 cm^2 TCDS patch weekly, respectively, for three consecutive weeks I each of the three treatment periods. During the baseline and recovery periods, all the subjects received only the placebo patch of the corresponding size for three consecutive weeks. During the fourth week of each study period, no patch was worn by the subjects in any treatment groups.
According to the blood sampling schedule, a total of 57 blood samples (about 10 ml per sample) were taken from each subject during the 5-month study. During the three treatment cycles, 15 samples were taken through out the 21 days of patch wearing period. At the end of the third treatment cycle, 5 additional blood samples were taken during the 24 hours post patch removal which allows the elimination pharmacokinetics of drugs to be studied. […]
Serum level of levonorgestrel (LNG), ethinyl estradiol (EE) as well as luteinizing hormone (LH), progesterone (P) and estradiol (E2) were analyzed by radio-immunassay methods.

[2] = human, in vivo, topical or ocular; cited from earlier work

levels achieved by the TCDS formulation of the present invention [1] [ng/mL]	SMILES	levels achieved by the system described in the '956 patent [2] [ng/mL]
0.035 to 0.075	C#C[C@]1(O)CC[C@H]2[C@@H]3CCc4cc(O)ccc4[C@H]3CC[C@@]21C [ethinyl estradiol]	
	C#C[C@]1(O)CC[C@H]2[C@@H]3CCC4=CC(=O)CC[C@@H]4[C@H]3CC[C@@]21CC [levonorgestrel]	0.4
